# Paper PMC6277434, “Discovery of a potent HMG-CoA reductase degrader that eliminates statin-induced reductase accumulation and lowers cholesterol” (Nature Communications, 2018)
# Where two headings read alike, the source gives them in different places.
# Tests used:
# HMGCR (TM1-8)-GFP [1] = molecular target: T1, HMGCR (TM1-8)-GFP (Cricetulus griseus, UniProt P00347)
# T1 sequence (P00347 1-346): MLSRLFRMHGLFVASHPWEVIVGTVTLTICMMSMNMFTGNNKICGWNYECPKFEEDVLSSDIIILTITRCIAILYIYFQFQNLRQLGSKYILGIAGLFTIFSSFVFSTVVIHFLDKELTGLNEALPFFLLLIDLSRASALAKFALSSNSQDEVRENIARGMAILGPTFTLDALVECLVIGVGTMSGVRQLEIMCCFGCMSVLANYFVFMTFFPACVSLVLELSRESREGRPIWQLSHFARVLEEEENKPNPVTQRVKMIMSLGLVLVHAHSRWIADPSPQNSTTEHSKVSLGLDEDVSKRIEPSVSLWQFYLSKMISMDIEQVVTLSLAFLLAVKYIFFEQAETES
# HMGCR (TM1-8)-GFP [2] = molecular target: T1, HMGCR (TM1-8)-GFP; test: HMGCR (TM1-8)-GFP fluorescent assay (high-content imaging) in CHG cells; settings: for effect on HMGCR (TM1-8)-GFP intensity: CHG cells
# [3] = read-out: Mean (HMGCR (TM1-8)-GFP signal relative to 0 μM = 100)
# [4] = 16 h, read-out: HMGCR (TM1-8)-GFP fluorescent intensity, mean
SMILES,DC50 (HMGCR (TM1-8)-GFP [1]) [µM],remaining activity at 0.156 µM (HMGCR (TM1-8)-GFP [2]; [3]) [%],remaining activity at 0.313 µM (HMGCR (TM1-8)-GFP [2]; [3]) [%],remaining activity at 0.625 µM (HMGCR (TM1-8)-GFP [2]; [3]) [%],remaining activity at 1.25 µM (HMGCR (TM1-8)-GFP [2]; [3]) [%],remaining activity at 2.5 µM (HMGCR (TM1-8)-GFP [2]; [3]) [%],remaining activity at 5 µM (HMGCR (TM1-8)-GFP [2]; [3]) [%],remaining activity at 10 µM (HMGCR (TM1-8)-GFP [2]; [3]) [%],remaining activity at 0.01 µM (HMGCR (TM1-8)-GFP [2]; [4]) [%],remaining activity at 0.03 µM (HMGCR (TM1-8)-GFP [2]; [4]) [%],remaining activity at 0.1 µM (HMGCR (TM1-8)-GFP [2]; [4]) [%],remaining activity at 0.3 µM (HMGCR (TM1-8)-GFP [2]; [4]) [%],remaining activity at 1 µM (HMGCR (TM1-8)-GFP [2]; [4]) [%],remaining activity at 3 µM (HMGCR (TM1-8)-GFP [2]; [4]) [%],remaining activity at 10 µM (HMGCR (TM1-8)-GFP [2]; [4]) [%],remaining activity at 20 µM (HMGCR (TM1-8)-GFP [2]; [4]) [%],remaining activity at 30 µM (HMGCR (TM1-8)-GFP [2]; [4]) [%],effect on HMGCR (TM1-8)-GFP intensity (HMGCR (TM1-8)-GFP [2]; 16 h)
CCC(O)(CC)CCCC[C@@H](C)C1CCC2C3C(CC[C@@]21C)[C@@]1(C)CC[C@H](O)C(C)(C)C1=C[C@@H]3O (some centres unmarked) [Compound 101],0.59,86.6,74,52.3,35.6,22.8,15.2,15.2,–,–,–,–,–,–,–,–,–,–
COC(=O)CC[C@@H](C)C1CCC2C3C(CC[C@@]21C)[C@@]1(C)CC[C@H](O)C(C)(C)C1=C[C@@H]3O (some centres unmarked) [Compound 49],6.67,93,100,100,93,78.9,58.3,37.6,–,–,–,–,–,–,–,–,–,–
C[C@H](CCCC(C)(C)O)C1CCC2C3C(CC[C@@]21C)[C@@]1(C)CC[C@H](O)C(C)(C)C1=C[C@@H]3O (some centres unmarked) [Compound 79],0.64,87.9,77.2,59.3,38.6,23.5,16.1,12.2,–,–,–,–,–,–,–,–,–,–
"CC(C)CCC[C@@H](C)[C@H]1CC[C@H]2[C@@H]3[C@@H](O)C=C4C(C)(C)[C@@H](O)CC[C@]4(C)[C@H]3CC[C@]12C [Compound 35, 4,4-Dimethyl 7β-hydroxyl cholesterol]",3.6,–,–,–,–,–,–,–,100,104,87.1,83.8,68.2,54.5,37,20,–,–
CCC1(CCOC)C2=CCC3C(CCC4(C)C(C(C)CCCC(C)C)CCC34)C2(C)CCC1O (centres unmarked) [Compound 11],–,–,–,–,–,–,–,–,–,–,90.8,97.1,100,91.7,93.3,97.4,95.4,did not decrease the HMGCR (TM1-8)-GFP intensity
C[C@H](CCCCCC(C)(C)O)C1CCC2C3C(CC[C@@]21C)[C@@]1(C)CC[C@H](O)C(C)(C)C1=C[C@@H]3O (some centres unmarked) [Compound 117],0.71,92,72.4,47.7,29.5,20.4,16.1,20.4,–,–,–,–,–,–,–,–,–,–
C[C@H](CCCCC(C)(C)O)C1CCC2C3C(CC[C@@]21C)[C@@]1(C)CC[C@H](O)C(C)(C)C1=C[C@@H]3O (some centres unmarked) [Compound 100],0.51,78.6,69.4,51.6,33.5,21.6,14.8,12.4,–,–,–,–,–,–,–,–,–,–
CC(C)CCC[C@@H](C)[C@H]1CCC2C3CC=C4C5(CCCCC5)[C@@H](O)CC[C@]4(C)C3CC[C@@]21C (some centres unmarked) [Compound 10],–,–,–,–,–,–,–,–,–,–,100,106,92.7,102,103,98.6,101,did not decrease the HMGCR (TM1-8)-GFP intensity
CC(O)CCC[C@@H](C)C1CCC2C3C(CC[C@@]21C)[C@@]1(C)CC[C@H](O)C(C)(C)C1=C[C@@H]3O (some centres unmarked) [Compound 86],2.17,96.6,88.8,78.7,64.4,44.4,28.4,19.7,–,–,–,–,–,–,–,–,–,–
CCC(O)CCCC[C@@H](C)C1CCC2C3C(CC[C@@]21C)[C@@]1(C)CC[C@H](O)C(C)(C)C1=C[C@@H]3O (some centres unmarked) [Compound 108],1.03,90.7,77.2,56.5,39.2,29.4,25.5,18.6,–,–,–,–,–,–,–,–,–,–
C[C@H](CCCCCO)C1CCC2C3C(CC[C@@]21C)[C@@]1(C)CC[C@H](O)C(C)(C)C1=C[C@@H]3O (some centres unmarked) [Compound 96],2.96,–,–,–,–,–,–,–,–,–,–,–,–,–,–,–,–,–
C[C@H](CCCO)C1CCC2C3C(CC[C@@]21C)[C@@]1(C)CC[C@H](O)C(C)(C)C1=C[C@@H]3O (some centres unmarked) [Compound 51],9.08,98.3,102,101,92.8,82.2,67.8,47.7,–,–,–,–,–,–,–,–,–,–
C=CCC1(CC=C)C2=CCC3C(CC[C@@]4(C)C3CC[C@@H]4[C@H](C)CCCC(C)C)[C@@]2(C)CC[C@@H]1O (some centres unmarked) [Compound 9],–,–,–,–,–,–,–,–,–,–,95.3,92.7,80.9,90.8,93.7,88.7,90.8,did not decrease the HMGCR (TM1-8)-GFP intensity
CC(O)CCCCC[C@@H](C)C1CCC2C3C(CC[C@@]21C)[C@@]1(C)CC[C@H](O)C(C)(C)C1=C[C@@H]3O (some centres unmarked) [Compound 124],0.92,88,78.3,62.2,38.2,19.5,14.7,21.8,–,–,–,–,–,–,–,–,–,–
COCCCCC[C@@H](C)C1CCC2C3C(CC[C@@]21C)[C@@]1(C)CC[C@H](O)C(C)(C)C1=C[C@@H]3O (some centres unmarked) [Compound 95],2.34,–,–,–,–,–,–,–,–,–,–,–,–,–,–,–,–,–
CC(O)CCCC[C@@H](C)C1CCC2C3C(CC[C@@]21C)[C@@]1(C)CC[C@H](O)C(C)(C)C1=C[C@@H]3O (some centres unmarked) [Compound 107],1.29,90.7,83.1,72.6,51.8,26.9,17.1,13.1,–,–,–,–,–,–,–,–,–,–
CC(O)CC[C@@H](C)C1CCC2C3C(CC[C@@]21C)[C@@]1(C)CC[C@H](O)C(C)(C)C1=C[C@@H]3O (some centres unmarked) [Compound 63],2.96,100,97.9,86.9,73.2,50.1,37.4,21,–,–,–,–,–,–,–,–,–,–
CC(C)CCC[C@@H](C)[C@H]1CCC2C3C(CC[C@@]21C)[C@@]1(C)CC[C@H](O)C(C)(C)C1=C[C@H]3N (some centres unmarked) [Compound 19],–,–,–,–,–,–,–,–,–,–,90.2,107,99.6,93.4,99.4,106,99.6,–
CC(=O)N[C@@H]1C=C2C(C)(C)[C@@H](O)CC[C@]2(C)C2CC[C@@]3(C)C(CC[C@@H]3[C@H](C)CCCC(C)C)C21 (some centres unmarked) [Compound 22],–,–,–,–,–,–,–,–,–,–,97.3,91.4,89.7,101,97.5,97.9,93.5,–
CC(C)CCC[C@@H](C)[C@H]1CCC2C3C(=O)C=C4C(C)(C)[C@@H](O)CC[C@]4(C)C3CC[C@@]21C (some centres unmarked) [Compound 33],–,–,–,–,–,–,–,–,–,–,93,97.3,94.4,96.3,95.2,85,–,–
COCCC1(CCOC)C2=CCC3C(CC[C@@]4(C)C3CC[C@@H]4[C@H](C)CCCC(C)C)[C@@]2(C)CC[C@@H]1O (some centres unmarked) [Compound 14],–,–,–,–,–,–,–,–,–,–,90.2,107,99.6,93.4,99.4,106,98.6,did not decrease the HMGCR (TM1-8)-GFP intensity
CC(C)CCC[C@@H](C)[C@H]1CCC2C3C(CC[C@@]21C)[C@@]1(C)CC[C@H](O)C(C)(C)C1=C[C@H]3N=[N+]=[N-] (some centres unmarked) [Compound 18],–,–,–,–,–,–,–,–,–,–,99.5,103,103,99.4,96.7,98.8,93,–
CCC1(CC)C2=CCC3C(CC[C@@]4(C)C3CC[C@@H]4[C@H](C)CCCC(C)C)[C@@]2(C)CC[C@@H]1O (some centres unmarked) [Compound 8],–,–,–,–,–,–,–,–,–,–,90.5,79.5,82.7,83.2,89.3,91.4,93.9,did not decrease the HMGCR (TM1-8)-GFP intensity
C[C@H](CCC(=O)O)C1CCC2C3C(CC[C@@]21C)[C@@]1(C)CC[C@H](O)C(C)(C)C1=C[C@@H]3O (some centres unmarked) [Compound 50],–,98.8,106,105,105,103,100,98.3,–,–,–,–,–,–,–,–,–,–
